Reference: patent publication US12226424B2, “Target protein degradation compounds, their anti-tumor use, their intermediates and use of intermediates” (ShanghaiTech University, priority 2018, dated 2025)

test system: CDK4/6 protein; experiment: Western-blot determination of CDK4/6 protein degradation (DC50) in T-47D cells; assay type: cell-based, human; details: 24 h drug treatment, read-out: DC50(nM)/T-47D cell line

Compound | DC50
CN(C)C(=O)c1cc2cnc(Nc3ccc(N4CCN(C(=O)CCCCCSc5cccc6c5C(=O)N(C5CCC(=O)NC5=O)C6=O)CC4)cn3)nc2n1C1CCCC1 (stereo not drawn) [SIAIS219104, 7-cyclopentyl-2-((5-(4-(6-((2-(2,6-dioxopiperidin-3-yl)-1,3-dioxoisoindolin-4-yl)thio)hexanoyl)piperazin-1-yl)pyridin-2-yl)amino)-N,N-dimethyl-7H-pyrrolo[2,3-d]pyrimidine-6-carboxamide] | 1 to 10 nM
CN(C)C(=O)c1cc2cnc(Nc3ccc(N4CCN(C(=O)CCCCCSc5cccc6c5CN(C5CCC(=O)NC5=O)C6=O)CC4)cn3)nc2n1C1CCCC1 (stereo not drawn) [SIAIS219090, 7-cyclopentyl-2-((5-(4-(6-((2-(2,6-dioxopiperidin-3-yl)-1-oxoisoindolin-4-yl)thio)hexanoyl)piperazin-1-yl)pyridin-2-yl)amino)-N,N-dimethyl-7H-pyrrolo[2,3-d]pyrimidine-6-carboxamide] | 0.2 to 1 nM
CC(=O)c1c(C)c2cnc(Nc3ccc(N4CCN(C(=O)CCCCCSc5cccc6c5C(=O)N(C5CCC(=O)NC5=O)C6=O)CC4)cn3)nc2n(C2CCCC2)c1=O (stereo not drawn) [SIAIS184089, 4-((6-(4-(6-((6-acetyl-8-cyclopentyl-5-methyl-7-oxo-7,8-dihydropyrido[2,3-d]pyrimidin-2-yl)amino)pyridin-3-yl)piperazin-1-yl)-6-oxohexyl)thio)-2-(2,6-dioxopiperidin-3-yl)isoindoline-1,3-dione] | 1 to 10 nM
Cc1nc2c(F)cc(-c3nc(Nc4ccc(CN5CCN(C(=O)CCCSc6cccc7c6CN(C6CCC(=O)NC6=O)C7=O)CC5)cn4)ncc3F)cc2n1C(C)C (stereo not drawn) [SIAIS262166, 3-(4-((4-(4-((6-((5-fluoro-4-(4-fluoro-1-isopropyl-2-methyl-1H-benzo[d]imidazol-6-yl)pyrimidin-2-yl)amino)pyridin-3-yl)methyl)piperazin-1-yl)-4-oxobutyl)thio)-1-oxoisoindolin-2-yl)piperidine-2,6-dione] | 0.5 to 5 nM
Cc1nc2c(F)cc(-c3nc(Nc4ccc(CN5CCN(C(=O)CCCCCCSc6cccc7c6CN(C6CCC(=O)NC6=O)C7=O)CC5)cn4)ncc3F)cc2n1C(C)C (stereo not drawn) [SIAIS262169, 3-(4-((7-(4-((6-((5-fluoro-4-(4-fluoro-1-isopropyl-2-methyl-1H-benzo[d]imidazol-6-yl)pyrimidin-2-yl)amino)pyridin-3-yl)methyl)piperazin-1-yl)-7-oxoheptyl)thio)-1-oxoisoindolin-2-yl)piperidine-2,6-dione] | 5 nM
Cc1nc2c(F)cc(-c3nc(Nc4ccc(CN5CCN(C(=O)CCSc6cccc7c6CN(C6CCC(=O)NC6=O)C7=O)CC5)cn4)ncc3F)cc2n1C(C)C (stereo not drawn) [SIAIS262165, 3-(4-((3-(4-((6-((5-fluoro-4-(4-fluoro-1-isopropyl-2-methyl-1H-benzo[d]imidazol-6-yl)pyrimidin-2-yl)amino)pyridin-3-yl)methyl)piperazin-1-yl)-3-oxopropyl)thio)-1-oxoisoindolin-2-yl)piperidine-2,6-dione] | 5 nM
CN(C)C(=O)c1cc2cnc(Nc3ccc(N4CCN(C(=O)CCSc5cccc6c5C(=O)N(C5CCC(=O)NC5=O)C6=O)CC4)cn3)nc2n1C1CCCC1 (stereo not drawn) [SIAIS219101, 7-cyclopentyl-2-((5-(4-(3-((2-(2,6-dioxopiperidin-3-yl)-1,3-dioxoisoindolin-4-yl)thio)propanoyl)piperazin-1-yl)pyridin-2-yl)amino)-N,N-dimethyl-7H-pyrrolo[2,3-d]pyrimidine-6-carboxamide] | < 100 nM
CC(=O)c1c(C)c2cnc(Nc3ccc(N4CCN(C(=O)COCCOCCSc5cccc6c5C(=O)N(C5CCC(=O)NC5=O)C6=O)CC4)cn3)nc2n(C2CCCC2)c1=O (stereo not drawn) [SIAIS219059, 4-((2-(2-(2-(4-(6-((6-acetyl-8-cyclopentyl-5-methyl-7-oxo-7,8-dihydropyrido[2,3-d]pyrimidin-2-yl)amino)pyridin-3-yl)piperazin-1-yl)-2-oxoethoxy)ethoxy)ethyl)thio)-2-(2,6-dioxopiperidin-3-yl)isoindoline-1,3-dione] | 10 to 50 nM
CN(C)C(=O)c1cc2cnc(Nc3ccc(N4CCN(C(=O)CCCCSc5cccc6c5C(=O)N(C5CCC(=O)NC5=O)C6=O)CC4)cn3)nc2n1C1CCCC1 (stereo not drawn) [SIAIS219103, 7-cyclopentyl-2-((5-(4-(5-((2-(2,6-dioxopiperidin-3-yl)-1,3-dioxoisoindolin-4-yl)thio)pentanoyl)piperazin-1-yl)pyridin-2-yl)amino)-N,N-dimethyl-7H-pyrrolo[2,3-d]pyrimidine-6-carboxamide] | < 1 nM

The remaining lines, values ahead:

DC50 | Compound
0.04 to 0.2 nM | CN(C)C(=O)c1cc2cnc(Nc3ccc(N4CCN(C(=O)COCCOCCSc5cccc6c5C(=O)N(C5CCC(=O)NC5=O)C6=O)CC4)cn3)nc2n1C1CCCC1 (stereo not drawn) [SIAIS219112, 7-cyclopentyl-2-((5-(4-(2-(2-(2-((2-(2,6-dioxopiperidin-3-yl)-1,3-dioxoisoindolin-4-yl)thio)ethoxy)ethoxy)acetyl)piperazin-1-yl)pyridin-2-yl)amino)-N,N-dimethyl-7H-pyrrolo[2,3-d]pyrimidine-6-carboxamide]
< 1 nM | CC(=O)c1c(C)c2cnc(Nc3ccc(N4CCN(C(=O)CCSc5cccc6c5CN(C5CCC(=O)NC5=O)C6=O)CC4)cn3)nc2n(C2CCCC2)c1=O (stereo not drawn) [SIAIS219052, 3-(4-((3-(4-(6-((6-acetyl-8-cyclopentyl-5-methyl-7-oxo-7,8-dihydropyrido[2,3-d]pyrimidin-2-yl)amino)pyridin-3-yl)piperazin-1-yl)-3-oxopropyl)thio)-1-oxoisoindolin-2-yl)piperidine-2,6-dione]
< 1 nM | CN(C)C(=O)c1cc2cnc(Nc3ccc(N4CCN(C(=O)COCCOCCOCCSc5cccc6c5C(=O)N(C5CCC(=O)NC5=O)C6=O)CC4)cn3)nc2n1C1CCCC1 (stereo not drawn) [SIAIS219113, 7-cyclopentyl-2-((5-(4-(2-(2-(2-(2-((2-(2,6-dioxopiperidin-3-yl)-1,3-dioxoisoindolin-4-yl)thio)ethoxy)ethoxy)ethoxy)acetyl)piperazin-1-yl)pyridin-2-yl)amino)-N,N-dimethyl-7H-pyrrolo[2,3-d]pyrimidine-6-carboxamide]
0.04 to 0.2 nM | CN(C)C(=O)c1cc2cnc(Nc3ccc(N4CCN(C(=O)COCCOCCOCCSc5cccc6c5CN(C5CCC(=O)NC5=O)C6=O)CC4)cn3)nc2n1C1CCCC1 (stereo not drawn) [SIAIS219108, 7-cyclopentyl-2-((5-(4-(2-(2-(2-(2-((2-(2,6-dioxopiperidin-3-yl)-1-oxoisoindolin-4-yl)thio)ethoxy)ethoxy)ethoxy)acetyl)piperazin-1-yl)pyridin-2-yl)amino)-N,N-dimethyl-7H-pyrrolo[2,3-d]pyrimidine-6-carboxamide]
< 1 nM | CC(=O)c1c(C)c2cnc(Nc3ccc(N4CCN(C(=O)CCCCCCSc5cccc6c5CN(C5CCC(=O)NC5=O)C6=O)CC4)cn3)nc2n(C2CCCC2)c1=O (stereo not drawn) [SIAIS219055, 3-(4-((7-(4-(6-((6-acetyl-8-cyclopentyl-5-methyl-7-oxo-7,8-dihydropyrido[2,3-d]pyrimidin-2-yl)amino)pyridin-3-yl)piperazin-1-yl)-7-oxoheptyl)thio)-1-oxoisoindolin-2-yl)piperidine-2,6-dione]

same assay, conditions: read-out: DC50(nM)/T-47D cell line, 24 h drug treatment

Compound | DC50
CN(C)C(=O)c1cc2cnc(Nc3ccc(N4CCN(C(=O)COCCSc5cccc6c5CN(C5CCC(=O)NC5=O)C6=O)CC4)cn3)nc2n1C1CCCC1 (stereo not drawn) [SIAIS219106, 7-cyclopentyl-2-((5-(4-(2-(2-((2-(2,6-dioxopiperidin-3-yl)-1-oxoisoindolin-4-yl)thio)ethoxy)acetyl)piperazin-1-yl)pyridin-2-yl)amino)-N,N-dimethyl-7H-pyrrolo[2,3-d]pyrimidine-6-carboxamide] | 0.04 to 0.2 nM
